Assay: Hydrolysis rate / drug release rate of the compounds (release of JAK inhibitor, HPLC)
Assay type: physicochemical
Settings: % release of JAK inhibitor from sample in acetonitrile/water=7/3 (v/v), 37° C. constant temperature shaker, sampled days 1-4, HPLC
How it was run: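 Compounds (about 5 mg per 20 mL) were dissolved in acetonitrile/water 7/3 (v/v) and held sealed at 37° C in a shaker, sampled on days 0, 1, 2, 3 and 4. Released JAK inhibitor was quantified by HPLC peak area against a 0.0002–0.08 mg/mL reference curve and expressed as % release corrected for molecular weights.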

Row | Structure (SMILES) | Release Rate (%/day)
1 | Cc1c(Cl)cccc1Nc1ccccc1C(=O)OCn1ccc2c(N(C)[C@H]3CN(C(=O)CC#N)CC[C@H]3C)ncnc21 [Ex. 66, (4-(((3R, 4R)-1-(2-cyanoacetyl)-4-methylpiperidin-3-yl) (methyl)amino)-7H-pyrrolo [2,3-d]pyrimidin-7-yl) methyl 2-((3-chloro-2-methylphenyl)amino) benzoate] | 0.06 %/day
2 | Cc1cccc(Nc2ccccc2C(=O)OCn2ccc3c(N(C)[C@H]4CN(C(=O)CC#N)CC[C@H]4C)ncnc32)c1C [Ex. 67, (4-(((3R, 4R)-1-(2-cyanoacetyl)-4-methylpiperidin-3-yl) (methyl)amino)-7H-pyrrolo [2,3-d]pyrimidin-7-yl) methyl 2-((2,3-dimethylphenyl)amino) benzoate] | 0.02 %/day
3 | CNS(=O)(=O)C[C@H]1CC[C@H](N(C)c2ncnc3c2ccn3C(=O)C(C)c2cccc(Oc3ccccc3)c2)CC1 (stereo partly drawn) [Ex. 68, N-methyl-1-((trans)-4-(methyl (7-(2-(3-phenoxyphenyl)propanoyl)-7H-pyrrolo [2,3-d]pyrimidin-4-yl)amino)cyclohexyl) methanesulfonamide] | 10.6 %/day
4 | CCS(=O)(=O)N1CC(CC#N)(n2cc(-c3ncnc4c3ccn4COC(=O)C(C)c3ccc(-c4ccccc4)c(F)c3)cn2)C1 (stereo not drawn) [Ex. 69, Methyl (4-(1-(3-(cyanomethyl)-1-(ethylsulfonyl)azetidin-3-yl)-1H-pyrazol-4-yl)-7H-pyrrolo [2,3-d]pyrimidin-7-yl) 2-(2-fluoro-[1, 1′-biphenyl]-4-yl) propanoate] | 0.03 %/day
5 | CCS(=O)(=O)N1CC(CC#N)(n2cc(-c3ncnc4c3ccn4COC(=O)Cc3ccccc3Nc3c(Cl)cccc3Cl)cn2)C1 [Ex. 70, Methyl (4-(1-(3-(cyanomethyl)-1-(ethylsulfonyl)azetidin-3-yl)-1H-pyrazol-4-yl)-7H-pyrrolo [2,3-d]pyrimidin-7-yl) 2-(2-((2,6-dichlorophenyl)amino)phenyl) acetate] | 0.42 %/day
6 | CCS(=O)(=O)N1CC(CC#N)(n2cc(-c3ncnc4c3ccn4COC(=O)C(C)c3cccc(Oc4ccccc4)c3)cn2)C1 (stereo not drawn) [Ex. 71, Methyl (4-(1-(3-(cyanomethyl)-1-(ethylsulfonyl)azetidin-3-yl)-1H-pyrazol-4-yl)-7H-pyrrolo [2,3-d]pyrimidin-7-yl) 2-(3-phenoxyphenyl) propanoate] | 0.01 %/day
7 | CCS(=O)(=O)N1CC(CC#N)(n2cc(-c3ncnc4c3ccn4COC(=O)C(C)c3ccc(CC4CCCC4=O)cc3)cn2)C1 (stereo not drawn) [Ex. 72, Methyl (4-(1-(3-(cyanomethyl)-1-(ethylsulfonyl)azetidin-3-yl)-1H-pyrazol-4-yl)-7H1-pyrrolo [2,3-d]pyrimidin-7-yl) 2-(4-((2-oxocyclopentyl)methyl)phenyl) propanoate] | <0.01 %/day
8 | CCS(=O)(=O)N1CC(CC#N)(n2cc(-c3ncnc4c3ccn4COC(=O)Cc3c(C)n(C(=O)c4ccc(Cl)cc4)c4ccc(OC)cc34)cn2)C1 [Ex. 73, Methyl (4-(1-(3-(cyanomethyl)-1-(ethylsulfonyl)azetidin-3-yl)-1H-pyrazol-4-yl)-7H-pyrrolo [2,3-d]pyrimidin-7-yl) 2-(1-(4-chlorobenzoyl)-5-methoxy-2-methyl-1H-indol-3-yl) acetate] | 0.2 %/day
9 | CCS(=O)(=O)N1CC(CC#N)(n2cc(-c3ncnc4c3ccn4COC(=O)[C@@H](NC(=O)OC(C)(C)C)c3ccccc3)cn2)C1 [Ex. 74, Methyl (4-(1-(3-(cyanomethyl)-1-(ethylsulfonyl)azetidin-3-yl)-1H-pyrazol-4-yl)-7H-pyrrolo [2,3-d]pyrimidin-7-yl) (S)-2-((tert-butoxycarbonyl)amino)-2-phenylacetate] | 0.44 %/day
10 | N#CC[C@H](C1CCCC1)n1cc(-c2ncnc3c2ccn3C(=O)Cc2ccccc2Nc2c(Cl)cccc2Cl)cn1 [Ex. 75, (R)-3-cyclopentyl-3-(4-(7-(2-(2-((2,6-dichlorophenyl)amino)phenyl)acetyl)-7H-pyrrolo [2,3-d]pyrimidin-4-yl)-1H-pyrazol-1-yl) propanenitrile] | 10.38 %/day
11 | CCC(C(=O)OCn1ccc2c(-c3cnn(C4(CC#N)CN(S(=O)(=O)CC)C4)c3)ncnc21)c1ccc(N2Cc3ccccc3C2=O)cc1 (stereo not drawn) [Ex. 76, Methyl (4-(1-(3-(cyanomethyl)-1-(ethylsulfonyl)azetidin-3-yl)-1H-pyrazol-4-yl)-7H-pyrrolo [2,3-d]pyrimidin-7-yl) 2-(4-(1-oxoisoindolin-2-yl)phenyl) butanoate] | 0.05 %/day
12 | CC(C(=O)n1ccc2c(-c3cnn([C@H](CC#N)C4CCCC4)c3)ncnc21)c1ccc(CC2CCCC2=O)cc1 (stereo partly drawn) [Ex. 77, (3R)-3-cyclopentyl-3-(4-(7-(2-(4-((2-oxocyclopentyl)methyl)phenyl)propanoyl)-7H-pyrrolo [2,3-d]pyrimidin-4-yl)-1H-pyrazol-1-yl) propanenitrile] | 3.69 %/day
13 | CC(=O)Nc1ccc(CC(=O)n2ccc3c(-c4cnn([C@H](CC#N)C5CCCC5)c4)ncnc32)cc1 [Ex. 78, (R)—N-(4-(2-(4-(1-(2-cyano-1-cyclopentylethyl)-1H-pyrazol-4-yl)-7H-pyrrolo [2,3-d]pyrimidin-7-yl)-2-oxoethyl)phenyl) acetamide] | 6.27 %/day
14 | COc1ccc2c(c1)c(CC(=O)n1ccc3c(-c4cnn([C@H](CC#N)C5CCCC5)c4)ncnc31)c(C)n2C(=O)c1ccc(Cl)cc1 [Ex. 79, (R)-3-(4-(7-(2-(1-(4-chlorobenzoyl)-5-methoxy-2-methyl-1H-indol-3-yl)acetyl)-7H-pyrrolo [2,3-d]pyrimidin-4-yl)-1H-pyrazol-1-yl)-3-cyclopentylpropanenitrile] | 7.38 %/day
15 | CC(C)(C)OC(=O)N[C@H](C(=O)n1ccc2c(-c3cnn([C@H](CC#N)C4CCCC4)c3)ncnc21)c1ccccc1 [Ex. 80, Tert-butyl ((S)-2-(4-(1-((R)-2-cyano-1-cyclopentylethyl)-1H-pyrazol-4-yl)-7H-pyrrolo [2,3-d]pyrimidin-7-yl)-2-oxo-1-phenylethyl) carbamate] | 27.29 %/day
16 | CCS(=O)(=O)N1CC(CC#N)(n2cc(-c3ncnc4c3ccn4COC(=O)c3ccccc3Nc3cccc(Cl)c3C)cn2)C1 [Ex. 81, Methyl (4-(1-(3-(cyanomethyl)-1-(ethylsulfonyl)azetidin-3-yl)-1H-pyrazol-4-yl)-7H-pyrrolo [2,3-d]pyrimidin-7-yl) 2-((3-chloro-2-methylphenyl)amino) benzoate] | 0.013 %/day
17 | Cc1cccc(Nc2ccccc2C(=O)n2ccc3c(-c4cnn([C@H](CC#N)C5CCCC5)c4)ncnc32)c1C [Ex. 82, (R)-3-cyclopentyl-3-(4-(7-(2-((2,3-dimethylphenyl)amino)benzoyl)-7H-pyrrolo [2,3-d]pyrimidin-4-yl)-1H-pyrazol-1-yl) propanenitrile] | 0.43 %/day
18 | CCS(=O)(=O)N1CC(CC#N)(n2cc(-c3ncnc4c3ccn4COC(=O)c3ccccc3Nc3cccc(C)c3C)cn2)C1 [Ex. 83, Methyl (4-(1-(3-(cyanomethyl)-1-(ethylsulfonyl)azetidin-3-yl)-1H-pyrazol-4-yl)-7H-pyrrolo [2,3-d]pyrimidin-7-yl) 2-((2,3-dimethylphenyl)amino) benzoate] | 0.003 %/day
19 | CCS(=O)(=O)N1CC(CC#N)(n2cc(-c3ncnc4c3ccn4COC(=O)Cc3ccc(NC(C)=O)cc3)cn2)C1 [Ex. 84, Methyl (4-(1-(3-(cyanomethyl)-1-(ethylsulfonyl)azetidin-3-yl)-1H-pyrazol-4-yl)-7H-pyrrolo [2,3-d]pyrimidin-7-yl) 2-(4-acetamidophenyl) acetate] | 0.06 %/day
20 | CCc1cccc2c3c([nH]c12)C(CC)(CC(=O)OCn1ccc2c(-c4cnn(C5(CC#N)CN(S(=O)(=O)CC)C5)c4)ncnc21)OCC3 (stereo not drawn) [Ex. 85, Methyl (4-(1-(3-(cyanomethyl)-1-(ethylsulfonyl)azetidin-3-yl)-1H-pyrazol-4-yl)-7H-pyrrolo [2,3-d]pyrimidin-7-yl) 2-(1,8-diethyl-1,3,4,9-tetrahydropyrano [3,4-b]indol-1-yl) acetate] | 0.61 %/day
21 | CC(C)Cc1ccc([C@H](C)C(=O)OCn2ccc3c(-c4cnn([C@H](CC#N)C5CCCC5)c4)ncnc32)cc1 [Ex. 86, (4-(1-((R)-2-cyano-1-cyclopentylethyl)-1H-pyrazol-4-yl)-7H-pyrrolo [2,3-d]pyrimidin-7-yl) methyl (S)-2-(4-isobutylphenyl) propanoate] | <0.01 %/day
22 | COc1ccc2cc([C@H](C)C(=O)OCn3ccc4c(-c5cnn([C@H](CC#N)C6CCCC6)c5)ncnc43)ccc2c1 [Ex. 87, (4-(1-((R)-2-cyano-1-cyclopentylethyl)-1H-pyrazol-4-yl)-7H-pyrrolo [2,3-d]pyrimidin-7-yl) methyl (S)-2-(6-methoxynaphthalen-2-yl) propanoate] | 0.01 %/day
23 | CNS(=O)(=O)C[C@H]1CC[C@H](N(C)c2ncnc3c2ccn3COC(=O)[C@@H](C)c2ccc(CC(C)C)cc2)CC1 [Ex. 88, (4-(Methyl ((trans)-4-((N-methylsulfamoyl)methyl)cyclohexyl)amino)-7H-pyrrolo [2,3-d]pyrimidin-7-yl) methyl (S)-2-(4-isobutylphenyl) propanoate] | 0.17 %/day
24 | CNS(=O)(=O)C[C@H]1CC[C@H](N(C)c2ncnc3c2ccn3COC(=O)[C@@H](C)c2ccc3cc(OC)ccc3c2)CC1 [Ex. 89, (4-(Methyl ((trans)-4-((N-methylsulfamoyl)methyl)cyclohexyl)amino)-7H-pyrrolo [2,3-d]pyrimidin-7-yl) methyl (S)-2-(6-methoxynaphthalen-2-yl) propanoate] | 0.16 %/day

From patent US12290519B2, “Anti-inflammatory coupling compound drug, and preparation method therefor and use thereof” (COVAL BIOPHARMA (SHANGHAI) CO., LTD., priority 2021, dated 2025)
